In test [1] the test system is renal proximal tubule cells (RPTC). The test is described as follows: Cell cycle analysis by flow cytometry: number of RPTC in S-phase. The class given is cell-based, rabbit. Here is the method: (§1) Isolation and culture of renal proximal tubules: Isolation and culture of renal proximal tubules were performed as described previously (Rodeheaver et al., 1990; Nowak and Schnellmann, 1995; Nowak and Schnellmann, 1996). Female New Zealand White rabbits (1.5-2.5 kg) were purchased from Myrtle's Rabbitry (Thompson Station, Tenn.). RPTC were isolated using the iron oxide perfusion method and grown in 6-well tissue culture dishes under improved conditions. The culture medium was an 1:1 mixture of DMEM/Ham's F-12 (without glucose, phenol red, or sodium pyruvate) supplemented with 15 mM HEPES buffer, 2.5 mM L-glutamine, 1 μM pyridoxine HCl, 15 mM sodium bicarbonate, and 6 mM lactate. Hydrocortisone (50 μM), selenium (5 ng/ml), human transferrin (5 μg/ml) bovine insulin (10 nM) and L-ascorbic acid-2-phosphate (50 μM) were added daily to fresh culture medium.
(§2) Isolated tubules were plated at 1 mg protein/well in a 6-well plate. On day 2, RPTC were incubated in the presence and absence of various pharmacological inhibitors for different time periods as indicated in the figure legends. For some experiments, suramin was added to RPTC on day 3 and then incubated for 24 hr in the presence or absence of various inhibitors before samples were taken.
Cell cycle analysis: Cell cycle phase was determined using flow cytometry as previously described (Zhuang et al., 2004). Cells were harvested, stained with propidium iodide and the number of cells in S-phase of cell cycle determined.
(In general: In flow cytometry, cells or beads pass a laser one at a time.)

The next test deals with ERK1/2. The test is described as follows: Immunoblot of ERK1/2 phosphorylation in RPTC. Type of test: cell-based, rabbit. The note with it: 50 μM suramin, 0-120 min. On the procedure:
(§3) Preparation of cell lysates and immunoblot analysis: After different treatments, RPTC were washed twice with PBS and harvested in lysis buffer (0.25 M Tris-HCl, pH 6.8, 4% SDS, 10% glycerol, 1 mg/ml bromophenol blue, and 0.5% 2-mercaptoethanol). Cells were disrupted by sonication for 15 seconds and lysates stored at −20 °C. Equal amounts of cellular protein lysate were separated on 10% polyacrylamide gels and transferred to nitrocellulose membranes. After treatment with 5% skim milk at 4 °C overnight, membranes were incubated with various antibodies for 1 hr, and then incubated with an appropriate horseradish-peroxidase conjugated secondary antibody (Amersham, Piscataway, N.J.). Bound antibodies were visualized following chemiluminescence detection on autoradiographic film.
(§4) We evaluated whether the PI3K/Akt and/or ERK1/2 pathways are activated in RPTC in response to suramin. The activation of the PI3K and ERK1/2 pathways was measured using immunoblot analysis and antibodies that recognize phosphorylated Akt at serine 473 (a target of PI3K) and ERK1/2, respectively. Total Akt and ERK1/2 content was measured using immunoblot analysis and antibodies that recognize the Akt and ERK1/2 independent of their phosphorylation state to control for gel loading.
(In western blotting, separated proteins are transferred to a membrane and probed.)

In test [2] the test system is mouse renal ischemic/reperfusion (I/R) acute renal failure model. The test is described as follows: Mouse renal ischemic/reperfusion (I/R) acute renal failure model, serum creatinine. The class given is in vivo. On the procedure: Experiments were designed to investigate whether suramin stimulated recovery of renal function in a mouse renal ischemic/reperfusion (I/R) acute renal failure model. Male C57BL/6 mice weighing 25-30 g were subjected to I/R injury using bilateral renal artery clamping for 26 min and then allowed to recover over time. The renal pedicles were isolated, but no clamps were applied in the sham group. Some mice subjected to I/R were treated with a single intravenous dose of suramin (0.001-10 mg/kg) or diluent 24 hr after reperfusion. Blood was collected at 24 and 48 hr after injury and serum creatinine levels measured as a marker of acute renal failure.

A further test deals with EGF receptor. Description: Immunoblot of EGF receptor phosphorylation (Tyr1068) in RPTC. The note with it: 50 μM suramin, 10 ng/ml EGF or both for 10 min. Type of test: cell-based, rabbit. Here is the method: as §3
To determine whether suramin caused EGF receptor activation, we performed immunoblot analysis using an antibody against phosphorylated tyrosine 1068 of the EGF receptor. Total EGF receptor content was measured using immunoblot analysis and an antibody that recognizes the EGF receptor independent of its phosphorylation state to control for gel loading. […] Thus, suramin induced RPTC proliferation and scattering is not through the EGF receptor.

For a further test, the system named is Akt. The test is described as follows: Immunoblot of Akt phosphorylation in RPTC. Type of test: cell-based, rabbit. Conditions: 50 μM suramin, 0-120 min. On the procedure:
as §3
as §4, with “loading. Suramin-induced Akt phosphorylation within 10 min, reached a maximum at 30 min and was sustained through 120 min of treatment (FIG. 6A). ERK1/2 phosphorylation also was induced within 10 min and maximal at 30 min, but decreased to the control levels at 120 min.” for “loading.”

The next test relates to Src. Description: Immunoblot of Src phosphorylation (Tyr416, Tyr527) in RPTC. The note with it: 50 μM suramin. Type of test: cell-based, rabbit. On the procedure:
as §3
To determine whether suramin activates Src and whether Src mediates Akt activation, we examined the effect of suramin on Src phosphorylation and the effect of PP1 on suramin-induced Akt phosphorylation. Src activation requires dephosphorylation of tyrosine 527 (Zheng et al., 2000) and phosphorylation of tyrosine 416 in the catalytic domain (Leu and Maa, 2003). Src phosphorylation at tyrosine 416 was detected in control samples. Following suramin-treatment, Src phosphorylation increased within 10 min and returned to the basal level at 60 min (FIG. 8A). […] Thus, suramin-induced RPTC proliferation and scattering is dependent on Src activity and Src is required for activation of the PI3K/Akt signaling pathway.

The test system of test [3] is renal proximal tubule cells (RPTC). The test is described as follows: MTT assay of RPTC proliferation. The note with it: 48 hr exposure, 50 μM suramin, versus diluent controls. Type of test: cell-based, rabbit. Here is the method: as §1, with “[…],” for “Schnellmann,”, “medium. Isolated tubules were plated at 1 mg protein/well in a 6-well plate. On day 2, RPTC were incubated in the presence and absence of various pharmacological inhibitors for different time periods as indicated in the figure legends. […] MTT assay: The 3-(4,5-dimethylthiazol-2-yl)-2,5-diphenyl-tetrazolium bromide (MTT) assay was used to assess cell proliferation (Kooistra et al., 1997; […] et al., 2002). Following a 48 hr exposure to various inhibitors or diluents, MTT was added (final concentration of 0.5 mg/ml) to individual cultures for an additional 30 min. Tetrazolium was released by dimethyl sulfoxide and optical density was determined with a spectrophotometer (570 nm). Data were normalized to diluent-treated cultures.” for “medium.”
On the technique in general: Tetrazolium assays rely on reduction of a dye to a coloured formazan, in cell work by metabolically active cells.

Test [4] has the same test system. Description: RPTC scattering, fibroblast-like morphology and lamellipodia (bright field, phalloidin staining). The class given is cell-based, rabbit. The note with it: 24 hr. Here is the method:
as §1, §2
Immunocytochemistry: After various treatments, RPTC were fixed with 10% buffered formalin, washed, permeabilized, and blocked with BSA. Fluorescein conjugated phalloidin was added and RPTC visualized by fluorescent microscopy.

Test [5] has the same test system. The test is described as follows: RPTC outgrowth from plated renal proximal tubules (photographs). The class given is cell-based, rabbit. Conditions: after 24 hr exposed for 24 hr, 50 μM suramin, 10 ng/ml EGF or suramin+EGF. On the procedure:
as §1, §2

For the molecule `Cc1ccc(C(=O)Nc2ccc(S(=O)(=O)O)c3cc(S(=O)(=O)O)cc(S(=O)(=O)O)c23)cc1NC(=O)c1cccc(NC(=O)Nc2cccc(C(=O)Nc3cc(C(=O)Nc4ccc(S(=O)(=O)O)c5cc(S(=O)(=O)O)cc(S(=O)(=O)O)c45)ccc3C)c2)c1` [suramin], the “RPTC proliferation (S-phase)” value in test [1] (100 μM suramin, 24 hr, compared with 50 μM) is recorded as “did not further increase RPTC proliferation”. Besides, the “RPTC in S-phase” value in [1] (24 hr treatment, four days following plating, suramin 50 μM, EGF 10 ng/ml, untreated approximately 20%) was 29%. Moreover, in test [1] (suramin concentrations lower than 50 μM, 24 hr), the “number of RPTC in S-phase” value is given as “did not statistically increase the number of RPTC in S-phase”. In addition, in the test with ERK1/2, the “time at which ERK1/2 phosphorylation decreased to the control levels” value turned out to be 120 min, the “time of maximal ERK1/2 phosphorylation” value is 30 min and the “time to induction of ERK1/2 phosphorylation” value is reported as ≤ 10 min. In addition, the renal function result in test [2] (doses of suramin greater than or equal to 0.1 mg/kg, single intravenous dose 24 hr after reperfusion) is reported as “completely restored renal function”. Also, the “recovery of renal function” value in [2] (low doses (0.1 mg/kg), given after acute renal failure is fully established) is recorded as “complete recovery of renal function”. Further, the serum creatinine levels entry in test [2] (single intravenous suramin dose between 0.003 and 0.03 mg/kg 24 hr after reperfusion, I/R plus diluent approximately 2 mg/dl) is “approximately 1 mg/dl”. In the test with EGF receptor, the “EGF receptor phosphorylation (tyrosine 1068)” value is given as “did not detect phosphorylated EGF receptor”. Besides, in the test on Akt, the “Akt phosphorylation sustained through” value is given as ≥ 120 min, the “time of maximum Akt phosphorylation” value came to 30 min and the “time to induction of Akt phosphorylation” value is given as ≤ 10 min. Moreover, in the test with Src, the “reduced phosphorylation of Src at tyrosine 527 sustained through” value is ≥ 120 min, the “time at which Src phosphorylation (tyrosine 416) returned to the basal level” value was 60 min, the “time to increase of Src phosphorylation at tyrosine 416” value is reported as ≤ 10 min and the “time to reduced phosphorylation of Src at tyrosine 527” value is recorded as ≤ 5 min. Moreover, the “increase in the number of RPTC (MTT assay)” value in test [3] was “approximately 40%”. Further, in [4] (50 μM suramin or 10 ng/ml EGF, phalloidin staining), the “formation of lamellipodia and intercellular contacts” value was “increased the formation of lamellipodia and decreased intercellular contacts”. Also, the “RPTC morphology at the edge of the cell island (scattering)” value in [4] (50 μM suramin, RPTC cultured 3 days) is “lost contact with their neighbors and became elongated, fibroblast-like cells”. Also, the RPTC outgrowth result in test [5] was “stimulated RPTC outgrowth”.
